Patent US20240382564A1, “Methods and Compositions for Treating Muscular Dystrophy and Memory Impairment” (Allysta Pharmaceuticals, Inc., priority 2023, published 2024)
“Also recorded” adds a separate entry of the source. Where no end group is shown, it is not given here. [ ]: non-standard residue; d: D form. Nva = CCC[C@H](N)C(=O)O

How the values were obtained:
Type in all cases: in vivo, mouse
D2.mdx mice [1] = experiment: Serum cytokine profiling (LEGENDplex)
Procedure: Male D2.mdx mice originated from a colony maintained at York University (Toronto, Canada) and sourced from Jackson Laboratories (Stock Number 013141, Bar Harbor, United States). Mice were treated daily from days 7 to 28 of age with ALY688 at 15 mg/kg b.w. (D2.mdx-ALY688) or saline control (D2.mdx-VEH). This age was chosen given it captures an early stage of disease progression in cardiac and skeletal muscle. Mice were sacrificed 20-24 hr after the last dose. Breeding of wildtype mice was unsuccessful. Instead, three-week-old wildtype DBA/2J WT mice (D2A) were obtained from Jackson Laboratories (Stock number 000671, Bar Harbor, United States) and allowed to acclimatize for one week before sacrifice. Mice were housed in standard 12:12-hr light:dark cycles and were allowed access to standard rodent chow and water ad libitum. 4 days prior to sacrifice, all groups underwent novel object recognition acclimatization and testing as described below. Mice were anesthetized under 5% isoflurane vaporized in medical air (21% oxygen) at a flow rate of 2 L/min and then maintained at 2-3% prior to euthanasia by exsanguination. Muscles were removed and used for another investigation (under review at the time of this submission). The right and left hippocampus were then quickly dissected from the brain with a portion placed immediately into ice-cold BIOPS, containing (in mM): 50 MES Hydrate, 7.23 K2EGTA, 2.77 CaK2EGTA, 20 imidazole, 0.5 dithiothreitol, 20 taurine, 5.77 ATP, 15 PCr, and 6.56 MgCl2·6H2O (pH 7.1) or flash-frozen in liquid nitrogen and stored at −80° C. for RNA isolation and western blotting. All experiments and procedures were approved by the Animal Care Committee at York University (AUP Approval Number 2016-18) in accordance with the Canadian Council on Animal Care.
Protein contents of TGF-β, TNF-α, IL-1β, IL-6 and IL-10 in serum were measured by flow cytometry using LEGENDplex™ Mouse Custom Panel (BioLegend; San Diego, CA, USA). […] The FCS files generated on the flow cytometer were analyzed using the LEGENDplex™ cloud-based analysis software.

D2.mdx mice [2] = experiment: In-situ quadriceps force
Procedure: D2.mdx mice were treated with ALY688 at two different dosages; high dose (HD; 15 mg/kg body weight/day) or low dose (LD; 3 mg/kg body weight/day) dissolved in saline. A separate group of mice were treated with saline alone (VEH, vehicle). Treatment was provided via subscapular subcutaneous injections from 7 days of age to 28-30 days. […] At 28-30 days of age, mice were anaesthetized with isoflurane vaporized in medical air (21% oxygen) at a 2 L/min flow rate. Due to tissue limitations in limb muscle, certain measures were performed separately in tibialis anterior and quadriceps across several phases of breeding. […]
Body temperature was maintained using an overhead heat lamp. […] Optimal resting length (L0) was determined using single twitches (pulse width=0.2 ms) at varying muscle lengths at the maximal stimulation current. Force was assessed across increasing frequencies (1, 40, 60, 80, 100, 120 Hz) using a biphasic stimulator (Model 710B, Aurora Scientific, Inc., ON, Canada), with one minute rest between each frequency. […] Recovery from fatigue was assessed 5, 10 and 15 minutes after the last contraction of the fatigue protocol at the frequency that elicited max force. Data were analyzed using Dynamic Muscle Control Data Acquisition software (Aurora Scientific, Inc) and normalized to quadriceps weight in mg.

D2.mdx mice [3] = experiment: Cardiac (RV, LV) mitochondrial H2O2 emission and ADP-stimulated respiration
Procedure: D2.mdx mice were treated daily subcutaneously beginning at 7 days of age for 3 weeks at 1 μL/g with ALY688 at 15 mg/kg body weight (high dose drug; HD) or with a saline (VEH) control. Mice were compared to age-matched wildtypes (DBA/2J). […] However, ADP-stimulated respiration supported by pyruvate was increased in VEH (36%) and HD (46%) vs wildtype whereas HD had no effect vs VEH.

D2.mdx mice [4] = experiment: Hippocampal high-resolution respirometry; conditions: 15 mg/kg daily; 15 μM ADP
Procedure: Male D2.mdx mice originated from a colony maintained at York University (Toronto, Canada) and sourced from Jackson Laboratories (Stock Number 013141, Bar Harbor, United States). Mice were treated daily from days 7 to 28 of age with ALY688 at 15 mg/kg b.w. (D2.mdx-ALY688) or saline control (D2.mdx-VEH). This age was chosen given it captures an early stage of disease progression in cardiac and skeletal muscle. Mice were sacrificed 20-24 hr after the last dose. Breeding of wildtype mice was unsuccessful. Instead, three-week-old wildtype DBA/2J WT mice (D2A) were obtained from Jackson Laboratories (Stock number 000671, Bar Harbor, United States) and allowed to acclimatize for one week before sacrifice. Mice were housed in standard 12:12-hr light:dark cycles and were allowed access to standard rodent chow and water ad libitum. 4 days prior to sacrifice, all groups underwent novel object recognition acclimatization and testing as described below. Mice were anesthetized under 5% isoflurane vaporized in medical air (21% oxygen) at a flow rate of 2 L/min and then maintained at 2-3% prior to euthanasia by exsanguination. […]
Mitochondrial oxygen consumption (respiration) was measured using the in situ brain permeabilization. […] Polarographic oxygen measurements were acquired in 2 s intervals with the rate of respiration derived from 40 data points and expressed as pmol/s/mg wet weight. […]

[dN]IP[Nva]LY[dS]FA[dS]-NH2 [ALY688]
serum IL-1β (D2.mdx mice [1]; relative to D2.mdx-VEH): increased
serum IL-6 (D2.mdx mice [1]; vs D2.mdx-VEH): attenuated
serum IL-10 (D2.mdx mice [1]; vs wildtype): increasing
muscle force production (D2.mdx mice [2]; both doses): no effect
recovery from fatigue, change (D2.mdx mice [2]; low dose, printed range also covers diaphragm high dose): −5.3% to −50.9
ADP-stimulated respiration supported by pyruvate, HD vs VEH (D2.mdx mice [3]; LV): no effect
ADP-stimulated respiration supported by pyruvate, increase vs wildtype (D2.mdx mice [3]; LV, HD, VEH 36%): 46%
mH2O2 emissions supported by pyruvate (D2.mdx mice [3]; LV, between groups): not different between groups
ADP-stimulated respiration supported by pyruvate (D2.mdx mice [3]; RV, HD, VEH −49% vs wildtype): completely rescued
mH2O2 emission stimulated by pyruvate (D2.mdx mice [3]; RV, HD, range of [ADP], VEH +88% vs wildtype): did not change
hippocampal pyruvate-supported respiration stimulated by ADP (D2.mdx mice [4]): completely preserved; also recorded: complete restoration
